Test results as given in article PMC10799085, “A miniaturized mode-of-action profiling platform enables high throughput characterization of the molecular and cellular dynamics of EZH2 inhibition” (Scientific Reports, 2024).
Where two headings read alike, the source gives them in different places.

Columns and labels:
PRC2/EZH2+/+ [1] = target: T1, PRC2/EZH2+/+ (Homo sapiens, UniProt Q15910); test: Equilibrium probe competition assay (ePCA), TR-FRET; assay type: binding
T1 construct: purchased Active Motif

PRC2/EZH2Y641N [2] = target: T2, PRC2/EZH2Y641N (Homo sapiens, UniProt Q15910, Y641N); test: as above; assay type: binding
T2 construct: Synthetic cDNA encoding N-terminal 6His-tagged full length EZH2^Y641N; 6His (N); made in house; host or cells: Sf9 insect cells (baculovirus co-infection)

PRC2/EZH2+/+ [3] = target: T1, PRC2/EZH2+/+; test: Kinetic probe competition assay (kPCA), TR-FRET; assay type: binding; conditions: for Kd: sheet ePCA&kPCA RT, read-out: Kinetic Kd
Method: Biotinylated PRC2 complexes and the fluorescent probe used in TR-FRET assays were generated as described in the supplementary methods section.
For measurements at 25, 30 and 37 °C, the temperature control functionality of the instrument was used.
TR-FRET kPCA traces were exported via Microsoft Excel to GraphPad Prism, where non-specific signals were subtracted and kinetic association competition traces were fitted to the Motulsky–Mahan model “kinetics of competitive binding” to obtain kon (k3), koff (k4) and KD parameters.

PRC2/EZH2 Y111L = target: T3, PRC2/EZH2 Y111L (Homo sapiens, UniProt Q15910, Y111L); test: Scintillation proximity assay (SPA) of H3K27 methylation; assay type: biochemical
T3 construct: N-terminal 6His-tagged full length EZH2^Y641N, EZH2^Y111L; 6His (N); made in house; host or cells: Sf9 insect cells (baculovirus co-infection)
Method: (§1) Assay-ready plates containing 50 nl of compound dilutions and DMSO controls were filled with 2.5 µL enzyme solution and pre-incubated for 15 min. […] Experiments were also performed without pre-incubation of enzyme and compounds. In this case, the substrate solution was added before enzyme. The reaction was stopped using 1.6 µg/µl streptavidin beads (Perkin Elmer) and 700 µM of SAM (Perkin Elmer). The plates were sealed with transparent foil.
(§2) For equilibrium binding competition (ePCA) and SPA enzyme inhibition assays, raw data import, quality control, normalization, and curve fitting to a 4-parameter logistic equation for IC50 determination were performed using the Genedata Screener® software (Genedata AG). ePCA Ki values were either calculated using the Cheng-Prussof equation[68] or with the GraphPad Prism model “One-site—Fit Ki”.

PRC2/EZH2+/+ [4] = target: T1, PRC2/EZH2+/+; test: as above; assay type: biochemical
Method: as §1, §2

PRC2/EZH2Y111D = target: T4, PRC2/EZH2Y111D (Homo sapiens, UniProt Q15910, Y111D); test: as above; assay type: biochemical
T4 construct: N-terminal 6His-tagged full length EZH2^Y641N, EZH2^Y111L, EZH2^Y111D; 6His (N); made in house; host or cells: Sf9 insect cells (baculovirus co-infection)
Method: as §1, §2

PRC2/EZH2Y641N [5] = target: T2, PRC2/EZH2Y641N; test: as above; assay type: biochemical
Method: as §1, §2

PRC2/EZH2Y641N+Y661D = target: T5, PRC2/EZH2Y641N+Y661D (Homo sapiens, UniProt Q15910, Y641N/Y661D); test: as above; assay type: biochemical
T5 construct: N-terminal 6His-tagged full length EZH2^Y641N, EZH2^Y111L, EZH2^Y111D, EZH2^Y641N, Y661DEZH2, EZH1; 6His (N); made in house; host or cells: Sf9 insect cells (baculovirus co-infection)
Method: as §1, §2

KARPAS-422 cells = test: Cellular proliferation assay (AlamarBlue, 144 h); assay type: cell-based; conditions: Homo sapiens; KARPAS-422 cells, 6-day (144 h), AlamarBlue; read-out: KARPAS (6-day) Anti-proliferation IC50
Method: Cell viability was determined by means of the AlamarBlue® reagent (Thermo Fisher Scientific) following instructions from the manufacturer. […] Anti-proliferative IC50s were calculated by fitting the normalized AlamarBlue® fluorescence values to a 4-parameter logistic equation using the Electronic Notebook (ELN) software from IDBS.

in vitro = in vitro ADME; conditions: human, Caco-2, pH 7.2, 2 µM, 2 h, 37 °C
Method: Cells were kept at 37 °C in a humidified 5% CO2 atmosphere. Before the permeation assay was run, the culture medium was replaced by an FCS-free HEPES carbonate transport buffer (pH 7.2). For assessment of monolayer integrity, the transepithelial electrical resistance was measured. Test compounds were pre-dissolved in DMSO and added either to the apical or basolateral compartment at a final concentration of 2 µM. Before and after 2 h incubation at 37 °C, samples were taken from both compartments. Analysis of compound content was conducted after precipitation with methanol by LC/MS/MS analysis. Reference compounds were analyzed in parallel as assay control. Permeability (Papp) was calculated in the apical to basolateral (A → B) and basolateral to apical (B → A) directions. The efflux ratio basolateral (B) to apical (A) was calculated by dividing Papp B–A by Papp A–B.

Compound: CCCc1cc(C)[nH]c(=O)c1CNC(=O)c1cc(-c2ccc(N3CCN(C(C)C)CC3)nc2)cc2c1cnn2C(C)C [Compound 9, UNC1999]
- Ki (PRC2/EZH2+/+ [1]; EZH2+/+ (+ H3K27me3), sheet ePCA&kPCA RT, read-out: Equilibrium Ki): 1.14 nM
- Ki (PRC2/EZH2+/+ [1]; EZH2+/+ (- H3K27me3), 5 °C, read-out: Ki (Equilibrium)): 1.92 nM
- Ki (PRC2/EZH2+/+ [1]; EZH2+/+ (- H3K27me3), 15 °C, read-out: Ki (Equilibrium)): 1.6 nM
- Ki (PRC2/EZH2+/+ [1]; EZH2+/+ (- H3K27me3), 30 °C, read-out: Ki (Equilibrium)): 8.06 nM
- Ki (PRC2/EZH2+/+ [1]; EZH2+/+ (- H3K27me3), 37 °C, read-out: Ki (Equilibrium)): 9.47 nM
- Ki (PRC2/EZH2+/+ [1]; EZH2+/+ (- H3K27me3), sheet ePCA&kPCA RT, read-out: Equilibrium Ki): 2.83 nM
- Ki (PRC2/EZH2+/+ [1]; wild type EZH2, absence of H3K27me3 peptide, read-out: Ki): 2.8 ± 0.9 nM
- Ki (PRC2/EZH2+/+ [1]; wild type EZH2, saturating concentrations of H3K27me3 peptide, read-out: Ki): 1.1 ± 0.5 nM
- Ki (PRC2/EZH2Y641N [2]; EZH2Y641N (+ H3K27me3), equilibrium, RT sheet): 6.65 nM
- Ki (PRC2/EZH2Y641N [2]; EZH2Y641N (- H3K27me3), sheet ePCA&kPCA RT): 26.5 nM
- Calculated RT (PRC2/EZH2+/+ [3]; EZH2+/+ (+ H3K27me3)): 0.20 h
- Kd (PRC2/EZH2+/+ [3]; EZH2+/+ (+ H3K27me3)): 0.54 nM
- RT (Calculated) (PRC2/EZH2+/+ [3]; EZH2+/+ (- H3K27me3), 5 °C): 0.341 h
- RT (Calculated) (PRC2/EZH2+/+ [3]; EZH2+/+ (- H3K27me3), 15 °C): 0.0983 h
- RT (Calculated) (PRC2/EZH2+/+ [3]; EZH2+/+ (- H3K27me3), 30 °C): 0.0171 h
- RT (Calculated) (PRC2/EZH2+/+ [3]; EZH2+/+ (- H3K27me3), 37 °C): 0.0129 h
- Calculated RT (PRC2/EZH2+/+ [3]; EZH2+/+ (- H3K27me3)): 0.0369 h
- Kd (PRC2/EZH2+/+ [3]; EZH2+/+ (- H3K27me3)): 2.39 nM
- IC50 (PRC2/EZH2 Y111L; 0' enzyme:inhibitor pre-incubation, read-out: SPA Mean IC50 (M) - 0' enzyme:inhibitor pre-incubation EZH2 Y111L): 3.1e-08 M
- IC50 (PRC2/EZH2 Y111L; 15' enzyme:inhibitor pre-incubation, read-out: SPA Mean IC50 (M) - 15' enzyme:inhibitor pre-incubation EZH2 Y111L): 2.2e-08 M
- IC50 (PRC2/EZH2 Y111L; 60' enzyme:inhibitor pre-incubation, read-out: SPA Mean IC50 (M) - 60' enzyme:inhibitor pre-incubation EZH2 Y111L): 2.5e-08 M
- IC50 (PRC2/EZH2+/+ [4]; 0' enzyme:inhibitor pre-incubation, read-out: SPA Mean IC50 (M) - 0' enzyme:inhibitor pre-incubation EZH2+/+): 5.2e-09 M
- IC50 (PRC2/EZH2+/+ [4]; 15' enzyme:inhibitor pre-incubation, read-out: SPA Mean IC50 (M) - 15' enzyme:inhibitor pre-incubation EZH2+/+): 3.7e-09 M
- IC50 (PRC2/EZH2+/+ [4]; 60' enzyme:inhibitor pre-incubation, read-out: SPA Mean IC50 (M) - 60' enzyme:inhibitor pre-incubation EZH2+/+): 3.1e-09 M
- IC50 (PRC2/EZH2Y111D; 0' enzyme:inhibitor pre-incubation, read-out: SPA Mean IC50 (M) - 0' enzyme:inhibitor pre-incubation EZH2Y111D): 5.9e-06 M
- IC50 (PRC2/EZH2Y111D; 15' enzyme:inhibitor pre-incubation, read-out: SPA Mean IC50 (M) - 15' enzyme:inhibitor pre-incubation EZH2Y111D): 4e-06 M
- IC50 (PRC2/EZH2Y111D; 60' enzyme:inhibitor pre-incubation, read-out: SPA Mean IC50 (M) - 60' enzyme:inhibitor pre-incubation EZH2Y111D): 3.2e-06 M
- IC50 (PRC2/EZH2Y641N [5]; 0' enzyme:inhibitor pre-incubation, read-out: SPA Mean IC50 (M) - 0' enzyme:inhibitor pre-incubation hEZH2Y641N): 3.8e-08 M
- IC50 (PRC2/EZH2Y641N [5]; 15' enzyme:inhibitor pre-incubation, read-out: SPA Mean IC50 (M) - 15' enzyme:inhibitor pre-incubation EZH2Y641N): 3.6e-08 M
- IC50 (PRC2/EZH2Y641N [5]; 60' enzyme:inhibitor pre-incubation, read-out: SPA Mean IC50 (M) - 60' enzyme:inhibitor pre-incubation EZH2Y641N): 3.2e-08 M
- IC50 (PRC2/EZH2Y641N+Y661D; 0' enzyme:inhibitor pre-incubation, read-out: SPA Mean IC50 (M) - 0' enzyme:inhibitor pre-incubation EZH2Y641N+Y661D): 3e-06 M
- IC50 (PRC2/EZH2Y641N+Y661D; 15' enzyme:inhibitor pre-incubation, read-out: SPA Mean IC50 (M) - 15' enzyme:inhibitor pre-incubation EZH2Y641N+Y661D): 2.4e-06 M
- IC50 (PRC2/EZH2Y641N+Y661D; 60' enzyme:inhibitor pre-incubation, read-out: SPA Mean IC50 (M) - 60' enzyme:inhibitor pre-incubation EZH2Y641N+Y661D): 3.2e-06 M
- IC50 (KARPAS-422 cells): 630 nM
- Papp A→B at 2 h, 2 µM (in vitro; apical to basolateral, read-out: PK Caco-2 Flux Papp A-B (mean)): 0.314 ×10⁻⁶ cm/s
- Papp B→A at 2 h, 2 µM (in vitro; basolateral to apical, read-out: PK Caco-2 Flux Papp B-A (mean)): 12.6 ×10⁻⁶ cm/s
